This is an account of results in article PMC11988034, “Exposure–Response Relationships for Toceranib in Dogs with Solid Tumors: A Pilot Study” (Animals : an Open Access Journal from MDPI, 2025).

In general, Cmax refers to the maximum level reached in the sampled fluid or tissue.

Read-outs that look alike come from different tables or passages of the source. A value given as a limit tells only on which side of the number the result lay.

Details of data set [1]: method as in PMID 34512023, PMID 31782166. To be noted: patients with metastatic renal cell tumors; cited from earlier work.
Details of data set [2]: method as in PMID 12855656. To be noted: preclinical trials in rodent models; cited from earlier work.
Data set [3] can be described thus: Assessment of adverse events (VCOG-CTCAE v2.0) in dogs treated with TOC. The format is in vivo. On the procedure:
AEs were evaluated before TOC treatment (at baseline) and 1, 2, and 4 weeks thereafter, followed by regular check-ups every 1–2 months. At each follow-up, a physical examination, blood pressure measurement, hematological and biochemical tests, and urinalysis were performed. AEs were graded according to the Veterinary Cooperative Oncology Group Common Terminology Criteria for AEs (v2.0). Concomitant medications, including famotidine, omeprazole, silymarin, ursodeoxycholic acid, mirtazapine, and tramadol, were allowed to prevent or treat drug-related AEs. TOC was permanently discontinued upon request of the owner or if unacceptable AEs occurred or disease progression was identified.

Data set [4] deals with malignant solid tumors. In words: Assessment of clinical outcome (tumor recurrence) in dogs with solid tumors on postoperative TOC. The format is in vivo. On the procedure:
A prospective, randomized clinical trial was conducted on client-owned dogs diagnosed with malignant solid tumors between May 2022 and October 2023 at the Konkuk University Animal Cancer Center. TOC (Palladia®, Zoetis, Parsippany, NJ, USA) was administered orally at a dose range of 2.4–2.9 mg/kg every other day with or without food. Medical data for the dogs were collected, including signalment (age, sex, and neuter status); physical examination, blood pressure, hematology, biochemistry, urinalysis, diagnostic imaging (radiography, ultrasound, and computed tomography), and histopathological findings (surgical margin and mitotic count); TOC dose and duration of TOC treatment; and AEs and clinical outcomes. Dogs were excluded from this study if distant metastases were confirmed at the time of diagnosis or if the TOC treatment duration was less than 1 month, which is insufficient for evaluating its effect. This clinical trial was approved by the Institutional Animal Care and Use Committee of the Konkuk University (approval no. KU 23046).
Rechecks were performed every 1–2 months after the initiation of TOC treatment through physical examination, three-view thoracic radiography, and abdominal ultrasonography.

For data set [5] the following is noted: cited from earlier work.
Data set [6] in a line: Plasma toceranib concentration (LC–MS/MS) in dogs with solid tumors treated with TOC. Format: in vivo. The following applies: for concentration at 48 h / Cmax: plasma; for concentration at 48 h: oral; for Cmax: po. On the procedure: A prospective, randomized clinical trial was conducted on client-owned dogs diagnosed with malignant solid tumors between May 2022 and October 2023 at the Konkuk University Animal Cancer Center. TOC ([…], NJ, USA) was administered orally at a dose range of 2.4-2.9 mg/kg every other day with or without food. Medical data for the dogs were collected, including signalment (age, sex, and neuter status); physical examination, blood pressure, hematology, biochemistry, urinalysis, diagnostic imaging (radiography, ultrasound, and computed tomography), and histopathological findings (surgical margin and mitotic count); TOC dose and duration of TOC treatment; and AEs and clinical outcomes. Dogs were excluded from this study if distant metastases were confirmed at the time of diagnosis or if the TOC treatment duration was less than 1 month, which is insufficient for evaluating its effect. This clinical trial was approved by the Institutional Animal Care and Use Committee of the Konkuk University (approval no. KU 23046). Whole blood (1-2 mL) was obtained from the external jugular vein after initiation of postoperative TOC treatment. Blood samples were collected in ethylenediaminetetraacetic acid tubes 6 h (Cmax) and 48 h (Cmin) after administration; these time points were determined based on previous studies. Within 30 min of collection, the samples were centrifuged at 3000× g for 10 min at 4 °C. The plasma was separated, divided into cryovials, and stored at -80 °C until analysis. […] Plasma toceranib was quantitated via high-performance liquid chromatography with tandem mass spectrometry detection (LC-MS/MS). […] After thorough vortexing for 1 min, the mixture was centrifuged at 15,000× g for 10 min at 4 °C, and 2 μL of the supernatant was collected and injected into the LC-MS/MS system. The LC-MS/MS system comprised an ExionLCTM AD system (Sciex, Toronto, ON, Canada) coupled with a Triple QuadTM 5500+ mass system (Sciex). Data were acquired using Analyst 1.4.3. Chromatographic separation was performed using an XBridge C18 column (100 × 2.1 mm, 5 μm; Waters Corporation, Milford, MA, USA) maintained at 40 °C. An isocratic mobile phase comprising 0.1% formic acid in water and 0.1% formic acid in acetonitrile (30:70, v/v) was used at a flow rate 0.50 mL/min, with the total run time not exceeding 3 min. The autosampler was maintained at 15 °C. All measurements were conducted using a mass spectrometer operated in the positive electrospray ionization mode. The multiple reaction monitoring transitions were m/z 397.2 → 283.0 for toceranib and m/z 405.2 → 283.1 for the toceranib-d8 internal standard (IS). The other parameters were as follows: collision gas, curtain gas, ion source gas 1, and ion source gas 2 at 7, 35, 50, and 70 psi, respectively; dwell time, 200 ms; ion spray voltage and temperature, 4000 V and 600 °C, respectively; declustering potential, 80 V for toceranib and the IS; collision energy, 40 V for toceranib and the IS; entrance potential (EP), 12 V for toceranib and 8 V for IS; and collision exit potential, 16 V for toceranib and 18 V for the IS. Standard curves were generated using the peak area ratios of toceranib to the IS and 1/x^2 weighted linear regression. Toceranib concentrations were determined via interpolation across a range of 5-500 ng/mL. Continuous variables are expressed as the mean ± standard deviation. Interpatient variability is expressed as the coefficient of variation, calculated as standard deviation divided by the mean and expressed as a percentage. Normality was assessed using the Shapiro-Wilk test. Continuous variables were compared using Student's t-test or Mann-Whitney U test. Linear mixed models for repeated measures were used to compare plasma TOC concentrations over time. Data were analyzed using SPSS v26.0 (IBM Corp., Armonk, NY, USA). Differences were considered significant at p < 0.05.

The conditions of data set [7]: cited from earlier work. The source holds these as a separate data set.
On the set-up of data set [8]: method as in PMID 24079884. To be noted: cited from earlier work.
Data set [9] has as its system canine solid tumors. The arrangement: method as in PMID 12855656, PMID 22236194, PMID 34981886. To be noted: various types of canine solid tumors; cited from earlier work.

For `CCN(CC)CCNC(=O)c1c(C)[nH]c(/C=C2\C(=O)Nc3ccc(F)cc32)c1C` [sunitinib], in [1], the “interpatient PK variability” value was 34–60%.
On to `Cc1[nH]c(/C=C2\C(=O)Nc3ccc(F)cc32)c(C)c1C(=O)NCCN1CCCC1` [TOC, Toceranib phosphate], for which the “therapeutic range (plasma concentration)” value in data set [2] was 50 to 100 ng/mL. For the same molecule, the “dogs that experienced AEs” value in data set [3] (five of the nine dogs in which Cmax was measured) is 55.6%; in data set [3] (five out of ten dogs, follow-up period) it was 50%; in [3] (two of the four dogs in which Cmin was measured) it was 50%. Besides, the “dogs that developed tumor recurrence” value in data set [4] (three of the nine dogs with Cmax measured) was 33.3%. Moreover, the “dogs that developed local recurrence” value in data set [4] (three out of ten dogs, follow-up period) is reported as 30%. In data set [5] (dogs with mast cell tumors receiving TOC at the MTD), the “Cmax level associated with clinical efficacy” value is recorded as “at least 40 ng/mL”. In addition, in data set [5] (in dogs), the elimination half-life result was “approximately 17 h”. Further, the “interpatient coefficient of variation for Cmax” value in data set [5] (previous PK study) is 35–40%. The “interpatient coefficient of variation for Cmin” value in data set [5] (previous PK study) was 30–61%. The “mean interpatient variability in dose-normalized Cmax (coefficient of variation)” value in [6] (dog, in vivo) was determined as 29%. Further, the “mean interpatient variability in dose-normalized Cmin (coefficient of variation)” value in [6] (dog, in vivo, 48 h) was determined as 61%. In addition, the concentration at 48 h in data set [6] (dog, dogs with AEs, read-out: mean Cmin) was 13.5 ± 12.1 ng/mL; in data set [6] (dog, dogs without AEs, read-out: mean Cmin), 14.9 ± 11.3 ng/mL; in [6] (dog, four dogs, mean ± SD, read-out: overall mean Cmin) it was 14.2 ± 9.57 ng/mL. Moreover, the highest concentration (Cmax) in data set [6] (dog, dogs with AEs, read-out: mean Cmax at week 1) stood at 89.3 ± 26.3 ng/mL; in [6] (dog, dogs with AEs, read-out: mean Cmax on average) it was 86.2 ± 28.6 ng/mL; in [6] (dog, dogs with tumor recurrence, read-out: mean Cmax at week 1) it was 74.6 ± 49.9 ng/mL; in data set [6] (dog, dogs with tumor recurrence, read-out: mean Cmax on average), 82.7 ± 42.6 ng/mL; in data set [6] (dog, dogs without AEs, read-out: mean Cmax at week 1) it was 59.9 ± 20.2 ng/mL; in data set [6] (dog, dogs without AEs, read-out: mean Cmax on average) it was 64.1 ± 8.58 ng/mL. For the same molecule, the Cmax in data set [6] (dog, dogs without tumor recurrence, read-out: mean Cmax at week 1) turned out to be 77 ± 13.7 ng/mL; in [6] (dog, dogs without tumor recurrence, read-out: mean Cmax on average) it was 73.2 ± 12.3 ng/mL; in data set [6] (dog, individual dogs (case no. in c0), plasma 6 h after oral administration, week 12, read-out: Cmax Week 12), 47.4 ng/mL; in data set [6] (dog, nine dogs, average of weeks, mean ± SD, read-out: overall mean Cmax on average) it was 76.4 ± 22.5 ng/mL; in data set [6] (dog, nine dogs, mean ± SD, read-out: overall mean Cmax at week 1), 76.2 ± 27.2 ng/mL. In [6] (dogs, oral dosing every other day), the “time to steady-state plasma concentration” value was at most 1 week. Moreover, the entries for the “biological activity (dogs responding)” value in data set [7] (11/16 dogs treated with 2.5 mg/kg TOC every other day) and in data set [7] (12/20 dogs treated with TOC at the MTD) were 69% and 60%, respectively. In addition, in [7] (every other day, dogs), the “maximum tolerated dose (MTD)” value is on record as 3.25 mg/kg. Further, the “resulting Cmax” value in [8] (TOC administered within 2.4 to 2.9 mg/kg) is listed as above 40 ng/mL. Besides, the “dogs in which Cmax was reached at 6 or 8 h post-administration” value in data set [8] is given as 69%. In addition, the “plasma concentration at 6 or 8 h as share of actual Cmax in the remaining dogs” value in data set [8] is above 75%. Also, the clinical benefit in data set [9] is given as 50–90%.
